These results are taken from patent US20080300298A1, “Honokiol Derivates For the Treatment of Proliferative Disorders” (priority 2005, published 2008).

The structures appear in SMILES notation.

This test relates to MM.1S cells. Put plainly: [3H]-thymidine uptake with IL-6, IGF-1 or BMSCs. Particulars: 48 h. The test is classed as cell-based, human. How it is done: DNA synthesis was measured as previously described, see, for example, Hideshima et al Blood. 2000; 96:2943-2950. Cells in 96-well culture plates were pulsed with 0.5 μCi/well of [^3H]-thymidine (Perkin Elmer, Boston, Mass.) during the last 8 h of culture, harvested onto glass filters with an automatic cell harvester (Cambridge Technology, Cambridge, Mass.), and counted using the LKB Betaplate scintillation counter (Wallac, Gaithersburg, Md.). All experiments were performed in triplicate.
Assessment of HNK-induced cytotoxicity against patient MM cells: Cytotoxicity of HNK against fresh MM cells was determined as previously determined, see, for example, Mitsiades et al Cancer Cell. 2004; 5:221-230. […] A CD38^high fraction enriched for MM cells was determined in side and forward scatter panel in each case. The expression of CD138 on gated cells was also evaluated. After HNK-treatment for 48 h, cells were harvested and percentage of CD38^high cells with or without HNK-treatment was evaluated. […] Cells were stained with propidium iodide (PI; 50 μg/mL; Sigma, St Louis, Mo.), and cell cycle profile was determined by using the program M software on an EPICS XL flow cytometer (Beckman Coulter, Hialeah, Fla.). […] Fluorescence intensity of TUNEL and APO 2.7 staining was determined using on EPICS XL flow cytometer. Cytotoxicity was determined by trypan blue exclusion assay. […]

For `C=CCc1ccc(O)c(-c2ccc(O)c(CC=C)c2)c1` [HNK, Honokiol], where the note is “MM.1S on BMSCs of MM patients”, the “DNA synthesis triggered by binding to BMSCs” value is “abrogated”. Where the note is “MM.1S”, the “growth inhibition in the presence of IL-6 or IGF-1” value is listed as “Neither IL-6 nor IGF-1 protected against HNK induced growth inhibition”.
